Data reported in patent US20260041620A1, “NOVEL AMINO ACID BASED SALTS, COMPOSITIONS AND METHODS FOR TREATING SKIN AND IMPROVING SKIN REJUVENATION AND LONGEVITY” (Sytheon Ltd, priority 2023, published 2026).
Read-outs that look alike come from different tables or passages of the source.

What was measured:
Telomerase = Telomerase Activity Quantification qPCR Assay in human dermal fibroblasts; type: cell-based; details: three days
Method: Normal neonatal human dermal fibroblasts (HDF cat, #2310; ScienCell, Oceanside, CA) were grown to confluence in the 6 well plate format and incubated with the test substances identified in Table 3 for three days. Following incubation, the cells were lysed and telomerase activity was determined with Telomerase Activity Quantification qPCR Assay Kit from ScienCell (cat. #8928). Forget-Me-Not™ EvaGreen® qPCR Master Mix (Low ROX) (Biotium, Fremont, CA) was used for real-time quantitative PCR on C1000 Touch System with CFX384™ optical module Detection. For quantifying the level of activity, the Comparative Cq method was used, following the equation: […]
where TPS is telomere primer set, which recognizes and amplifies newly synthesized telomere sequences and Cq(TPS) is the Quantification Cycle Value obtained from the qPCR software. The relative telomerase activity difference between the experimental condition and control is expressed as 2^−ΔCq Telomerase activity was considered different if the level of expression was reasonably high (Cq≤33 cycles to detect), the difference vs. control was >2 fold and the p value, assessed with two-tailed Student test, was <0.05.

Type I Collagen = Type I Collagen Assay (ELISA, fibroblast culture medium); type: cell-based, human; details: for Type I Collagen C-Peptide: 48 hours, untreated 1255 ± 83
Method: (§1) In the study, human neonatal fibroblasts were seeded into the individual wells of a 48-well plate in 0.25 ml of Fibroblasts Growth Media (FGM) and incubated overnight at 37±2° C. and a 5±1% CO2 atmosphere. On the following day the media was removed via aspiration to eliminate non-adherent cells and replaced with 0.5 ml of fresh FGM. The cells were grown until confluent, with a media change every 48 to 72 hours. Upon reaching confluency the cells were treated for 24 hours with Dulbecco's Modified Eagle's medium (DMED) supplemented with 1.5% Fetal Bovine Serum (FBS) to wash out any effects from the growth factors included in the normal culture media. After this 24-hour wash out period the cells were treated with the test materials at the specified concentrations dissolved in FGM with 1.5% FBS. Sodium ascorbate (10 ug/ml) was used as a positive control. Untreated cells (negative controls) only received DMEM with […], The cells were incubated for 48 hours and at the end of the incubation period, cell culture medium was collected and either stored frozen (−75 C) or assayed immediately. Materials were tested in triplicate.
A series of type I collagen peptide standards was prepared ranging from 0 ng/ml to 640 ng/ml. An ELISA microplate was prepared by removing any unneeded strips from the plate frame followed by the addition of 100 μl of peroxidase labelled anti-procollagen type I-C peptide antibody to each well used in the assay. A 20 μl sample of each of the collected tissue culture media or a standard was then added to appropriate wells and the microplate covered and allowed to incubate for 3±0.25 hours at 37 C. Following incubation, the wells were aspirated and washed three times with 400 μl of wash buffer. After the last wash was remove 100 μl of peroxidase substrate solution (hydrogen peroxide+tetramethylbenzidine as a chromogen) was added to each well and the plate incubated for 15±4 minutes at room temperature. Following this incubation, 100 μl of stop solution (1 N sulfuric acid) was added to each well and the plate read using a microplate reader at 450 nm.
(§2) To quantify the amount of each substance present, a standard curve was generated using known concentrations of each substance. A regression analysis was performed to establish the line that best fit those data points. Absorbance values for the test materials and untreated samples were used to estimate the amount of each substance present in each sample. Treatment means were compared using ANOVA, with an […] per treatment. Statistical significance was set at p≤0.05.

Type IV Collagen = Type IV Collagen Assay (ELISA, fibroblast culture medium); type: cell-based, human; details: for Type IV Collagen C-Peptide: 48 hours, untreated 7.76 ± 0.92
Method: as §1
A series of type IV collagen peptide standards was prepared ranging from 0 ng/ml to 640 ng/ml. 100 μl of each standard or of each of the collected tissue culture media were added to the wells of type IV collagen ELISA plates. The plates were then incubated at 37° C. for 1 hour. After incubation, the ELISA plates were then washed twice with wash buffer, followed by the addition of 100 μl of detection antibody solution. The ELISA plates were then incubated for 1 hour at 37° C. Following incubation, the ELISA plates were washed with wash solution followed by the addition of 100 μl HEP conjugate solution and incubated at 37° C. for 30 minutes. Following the latter incubation, the ELISA plates were again washed and 100 μl of the substrate solution was added to each well and the well plates incubated for 10-30 minutes at room temperature to allow the color generation reaction to occur. At the end of the color generation reaction 100 μl of stop solution (1 N sulfuric acid) was added to each well and the plates read at 460 nm using a plate reader.
as §2

HDAC 3 = HDAC 3 (Homo sapiens, UniProt O15379)
Sequence of HDAC 3 (O15379 whole entry): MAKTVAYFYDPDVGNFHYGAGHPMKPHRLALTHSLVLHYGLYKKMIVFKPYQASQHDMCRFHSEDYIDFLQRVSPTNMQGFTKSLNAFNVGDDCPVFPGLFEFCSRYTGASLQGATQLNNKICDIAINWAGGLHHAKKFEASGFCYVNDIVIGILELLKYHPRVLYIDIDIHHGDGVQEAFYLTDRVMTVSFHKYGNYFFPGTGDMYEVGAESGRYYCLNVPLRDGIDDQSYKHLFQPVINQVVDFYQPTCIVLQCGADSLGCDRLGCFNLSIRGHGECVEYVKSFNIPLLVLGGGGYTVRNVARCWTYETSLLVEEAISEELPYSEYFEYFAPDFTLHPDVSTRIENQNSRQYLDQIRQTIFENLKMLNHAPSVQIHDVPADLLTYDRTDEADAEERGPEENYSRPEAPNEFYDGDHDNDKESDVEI
Sequence of HDAC 3 (Q9Y618 395-489 partner limits assumed): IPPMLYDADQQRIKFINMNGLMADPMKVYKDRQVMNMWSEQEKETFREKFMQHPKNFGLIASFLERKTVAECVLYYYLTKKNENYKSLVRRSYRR
Method: (§3) Test materials were stored at room temperature and stock solutions were prepared at 20 mg/ml in DMSO. Further dilutions were made in sterile distilled water immediately before being added to the reaction mixture containing a substrate, and the reaction was triggered by the addition of purified HDAC enzymes, Double distilled water was the negative control and trichostatin (1.5 ug/ml) was used as a positive control for validation of each study. The test procedure was as directed in the assay kits. The products of the reactions were measured by fluorometry at ex/em 350/450 nm using multi-well plate fluorometer Cytofluor 4000 (Applied Biosystem, Foster City, CA) or using SpectraMax i3× Multi-Mode Detection Platform from Molecular Devices (Sunnyvale, CA).
(§4) Statistical significance was assessed with a two-tail Student test. Deviations of ≤20% as compared to water control with p values below 0.05 were considered statistically significant.

HDAC 9 = HDAC 9 (Homo sapiens, UniProt Q9UKV0)
Sequence of HDAC 9 (Q9UKV0 whole entry): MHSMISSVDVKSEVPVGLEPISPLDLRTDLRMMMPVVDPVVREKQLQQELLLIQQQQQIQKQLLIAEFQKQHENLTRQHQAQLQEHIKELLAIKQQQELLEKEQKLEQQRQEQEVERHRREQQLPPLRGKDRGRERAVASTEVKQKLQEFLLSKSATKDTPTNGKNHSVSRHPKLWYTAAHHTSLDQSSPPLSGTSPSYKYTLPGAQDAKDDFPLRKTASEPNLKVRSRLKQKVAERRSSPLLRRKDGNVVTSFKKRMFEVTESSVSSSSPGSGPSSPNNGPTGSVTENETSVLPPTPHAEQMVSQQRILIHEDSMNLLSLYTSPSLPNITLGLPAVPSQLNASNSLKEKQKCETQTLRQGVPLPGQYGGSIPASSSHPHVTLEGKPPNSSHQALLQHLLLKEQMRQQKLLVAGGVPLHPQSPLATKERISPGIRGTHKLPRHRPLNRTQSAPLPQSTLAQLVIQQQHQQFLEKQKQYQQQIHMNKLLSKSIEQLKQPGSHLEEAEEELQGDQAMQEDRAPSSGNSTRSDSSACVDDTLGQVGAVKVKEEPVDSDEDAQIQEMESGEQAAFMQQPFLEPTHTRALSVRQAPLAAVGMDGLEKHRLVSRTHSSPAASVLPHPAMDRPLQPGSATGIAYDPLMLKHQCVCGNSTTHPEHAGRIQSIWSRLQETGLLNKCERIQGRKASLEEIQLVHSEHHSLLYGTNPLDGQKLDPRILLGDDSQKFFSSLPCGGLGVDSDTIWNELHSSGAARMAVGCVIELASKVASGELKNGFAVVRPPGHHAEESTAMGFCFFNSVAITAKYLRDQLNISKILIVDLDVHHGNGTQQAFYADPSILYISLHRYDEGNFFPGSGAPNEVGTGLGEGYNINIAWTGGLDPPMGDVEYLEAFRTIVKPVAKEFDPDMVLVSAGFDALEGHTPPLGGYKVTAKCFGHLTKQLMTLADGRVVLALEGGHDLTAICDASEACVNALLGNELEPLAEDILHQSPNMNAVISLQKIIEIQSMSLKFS
Method: as §3, §4

COX-2 = molecular target: T1, COX-2 (Homo sapiens, UniProt P35354)
T1 sequence (P35354 18-604): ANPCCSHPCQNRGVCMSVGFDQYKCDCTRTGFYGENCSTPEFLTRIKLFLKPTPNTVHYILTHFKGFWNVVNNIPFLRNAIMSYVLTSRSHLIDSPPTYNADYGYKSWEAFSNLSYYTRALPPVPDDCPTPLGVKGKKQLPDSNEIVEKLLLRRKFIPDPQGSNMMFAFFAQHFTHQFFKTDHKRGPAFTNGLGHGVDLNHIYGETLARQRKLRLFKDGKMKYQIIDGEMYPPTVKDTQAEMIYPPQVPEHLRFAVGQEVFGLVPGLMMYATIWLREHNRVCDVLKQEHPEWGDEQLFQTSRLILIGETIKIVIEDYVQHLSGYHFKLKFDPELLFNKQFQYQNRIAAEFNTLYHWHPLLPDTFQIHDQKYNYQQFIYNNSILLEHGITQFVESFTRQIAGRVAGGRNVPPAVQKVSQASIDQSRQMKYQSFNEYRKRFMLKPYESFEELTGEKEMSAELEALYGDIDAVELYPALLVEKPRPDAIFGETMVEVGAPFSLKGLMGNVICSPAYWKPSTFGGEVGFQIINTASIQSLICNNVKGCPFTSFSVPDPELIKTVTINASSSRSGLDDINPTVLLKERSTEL
Method: A 0.1 gram sample of each test material was dissolved in 1 mL propanediol make a stock solution, each of which was subject to 1 to 2 serial dilutions using buffer for use in determining the IC50 Testing and analysis was performed in accordance with the protocol of the COX-2 Kt (Cayman Catalog #701080) (Cayman catalog #62160).

[1] = concentrations as high as 100 μg/ml

Molecule	Average Cq(TPS) (Telomerase; 50 μg/ml)	Telomerase Activity (FC vs. water) (Telomerase; 50 μg/ml) [FC]	ΔCq sample-water (Telomerase; 50 μg/ml)	Type I Collagen C-Peptide (Type I Collagen; 10 μg/ml) [ng/mL]	Type I Collagen C-Peptide (Type I Collagen; 30 μg/ml) [ng/mL]	Type IV Collagen C-Peptide (Type IV Collagen; 10 μg/ml) [ng/mL]	Type IV Collagen C-Peptide (Type IV Collagen; 30 μg/ml) [ng/mL]	HDAC 3 activity, % of water-treated controls (HDAC 3; 25 ug/ml) [%]	HDAC 3 activity, % of water-treated controls (HDAC 3; 50 ug/ml) [%]	HDAC 3 activity, % of water-treated controls (HDAC 3; 200 ug/ml) [%]	HDAC 9 activity, % of water-treated controls (HDAC 9; 5 ug/ml) [%]	HDAC 9 activity, % of water-treated controls (HDAC 9; 25 ug/ml) [%]	HDAC 9 activity, % of water-treated controls (HDAC 9; 50 ug/ml) [%]	HDAC 9 activity, % of water-treated controls (HDAC 9; 100 ug/ml) [%]	HDAC 9 activity, % of water-treated controls (HDAC 9; 200 ug/ml) [%]	COX-2 IC50 (COX-2) [µg/mL]	HDAC 3 activity, % of water-treated controls (HDAC 3; 100 ug/ml) [%]	other results
CCCC(=O)NCCCC[C@H](NC(=O)CCC)C(=O)[O-].CCCC(=O)NCCCC[C@H](NC(=O)CCC)C(=O)[O-].[Zn+2] [Zn di-(di-n-butyryl lysinate), Zinc di-(di-n-butyryl lysinate)]	30.0	14.6	3.9	1328 ± 48	1958 ± 125	13.41 ± 1.40	26.98 ± 1.37	14	5	4	39	29	25	19	20	82.3	–	Average Cq(TPS) (Telomerase; 10 μg/ml): 30.7; Telomerase Activity (FC vs. water) (Telomerase; 10 μg/ml): 8.9 FC; ΔCq sample-water (Telomerase; 10 μg/ml): 3.2; Type I Collagen C-Peptide (Type I Collagen; 20 μg/ml): 1541 ± 94 ng/mL; boost of Collagen I vs control (Type I Collagen; 30 μg/ml): ~50%; boosting of Collagen IV versus control (Type IV Collagen; 20 μg/ml): ~250%; Type IV Collagen C-Peptide (Type IV Collagen; 20 μg/ml): 21.19 ± 1.47 ng/mL; boosting of Collagen IV versus control (Type IV Collagen; 30 μg/ml): ~320%
Zinc Di-lysinate [Zn dilysinate]	–	–	–	–	–	–	–	–	8	5	21	18	15	15	16	–	–	HDAC 3 activity, % of water-treated controls (HDAC 3; 10 ug/ml): 18%
CCCC(=O)NCCCCC(NC(=O)CCC)C(=O)[O-].CCCC(=O)NCCCCC(NC(=O)CCC)C(=O)[O-].[Ca+2] (centres unmarked) [Ca di-(di-n-butyryl lysinate), calcium di-(di-n-butyryl lysinate)]	–	–	–	–	–	–	–	116	120	119	212	178	242	289	258	111.0	121	–
CCCC(=O)N[C@@H](CC(C)C)C(=O)[O-].CCCC(=O)N[C@@H](CC(C)C)C(=O)[O-].[Zn+2] [Zn di-(n-butyryl leucinate), Zinc di-(n-butyryl leucinate)]	–	–	–	–	–	–	–	–	–	–	15	49	44	30	22	–	–	–
CCCC(=O)[O-].[Na+] [Sodium butyrate, reference compound]	34.3	0.7	−0.5	1445 ± 168	1262 ± 95	9.29 ± 0.70	7.61 ± 0.70	–	98	60	–	–	55	53	57	–	82	Average Cq(TPS) (Telomerase; 100 μg/ml): 33.7; Telomerase Activity (FC vs. water) (Telomerase; 100 μg/ml): 1.1 FC; ΔCq sample-water (Telomerase; 100 μg/ml): 0.1; Type I Collagen C-Peptide (Type I Collagen; 60 μg/ml): 1196 ± 175 ng/mL; Type I Collagen C-Peptide (Type I Collagen; 100 μg/ml): 1277 ± 216 ng/mL; Collagen I boosting activity (Type I Collagen; [1]): didn't show any; Type IV Collagen C-Peptide (Type IV Collagen; 60 μg/ml): 11.88 ± 1.37 ng/mL; Type IV Collagen C-Peptide (Type IV Collagen; 100 μg/ml): 12.80 ± 1.83 ng/mL; Collagen IV boosting activity (Type IV Collagen; [1]): didn't show any; HDAC 3 activity, % of water-treated controls (HDAC 3; 400 ug/ml): 49%; HDAC 9 activity, % of water-treated controls (HDAC 9; 400 ug/ml): 58%
